Test results as given in patent publication US20250122253A1, “REGULATING MICROTUBULE DYNAMICS AS A THERAPEUTIC TARGET FOR NERVE REPAIR” (City University of Hong Kong, priority 2023, published 2025).

Assays:
spinal neurons = details: background statement; paclitaxel in rats; cited from earlier work
tubulin = details: epothilone B: cultured rat cortical neurons; cited from earlier work
[1] = chronic exposure, high doses in animals; cited from earlier work
damaged axons = details: background statement; cited from earlier work
[2] = system: regenerating sensory axons of the injured sciatic nerve; experiment: Sciatic nerve pinch test after sciatic nerve crush injury; assay type: in vivo, mice; details: AAV2/9-Fmn2-shRNA mice; 3 days after sciatic nerve injury; LMK-235 20 mg/kg intraperitoneally 3 consecutive days
Experimental: Sciatic nerve crush or transection injury was performed in anesthetized adult male C57BL/6 or Fmn2^−/− mice (8-12 weeks old) as previously described. Briefly, the left sciatic nerve was exposed at mid-thigh level. For crush injury, the exposed nerve was crushed with smooth forceps (Dumont #5/45 Forceps, Fine Science Tools) at the sciatic notch for 15 seconds. For sciatic nerve transection, an epineural suture was first made at the level of external rotator muscle, just distal to the sciatic notch. The exposed nerve was then transected using a pair of ophthalmic microscissors just distal to the suture. After injury, the overlying muscle and skin were sutured using a 5-0 suture (Ethilon), and the mice were allowed to recover on a heated pad, and returned to their home cages after recovery. The surgeon was blinded to the genotypes and treatments.
For in vivo gene silencing of Fmn2 and/or Hdac5 in DRGs, AAV2/9-Fmn2-shRNA and AAV2/9-Hdac5-shRNA at a titer of 5×10^12 vg/mL (OBIO Technology) were injected into the sciatic nerve directly through a glass micropipette using a microinjector (Harvard Apparatus) two weeks before sciatic nerve crush injury. The mice were then subjected to sciatic nerve crush injury and sciatic nerve pinch test (FIG. 4) and animal behavioural assessment (FIG. 15). The expression of shRNAs was under the control of the U6 promoter, and the expression of the reporter gene eGFP was under the control of the CAG promoter. AAV2/9-scr-shRNA (Packgene) was used as a negative control (see FIG. 22 for the shRNA sequences). On a separate batch of animals, the knockdown efficiency in DRGs was assessed by Western blot analysis in AAV2-Fmn2-shRNA and AAV2-Hdac5-shRNA mice two weeks after the AAV injection (FIGS. S8B and S9). […]
Sciatic nerve pinch test was performed in the ipsilateral side 3 days after sciatic nerve crush injury. […] The distance (in mm) representing the length of axonal regrowth was recorded from the crushed site to the most distal point of sciatic nerve whereas initial withdrawal reflex was observed after pinching. […]

pHDAC5 = experiment: Western blot of pHDAC5 in sciatic nerve segments 0-6 mm distal to the crush site; assay type: in vivo, mice; details: AAV2/9-Fmn2-shRNA mice; 3 days after injury
Experimental: (§1) Ipsilateral L4/5 DRG neurons were harvested at various time points following sciatic nerve injury as indicated. Sciatic nerves were harvested 3 days after crush injury and segmented into 0-6 mm distal to the crush site. Each protein sample was pooled from 3 mice. DRG neurons and segmented sciatic nerves were mechanically dissociated with protein lysis buffer, and subjected to measurement of protein concentration using protein BCA assay (Pierce). Protein lysate (30 μg) was separated on 4-12% NuPAGE Tris-Glycine precast gel (Invitrogen). Protein was then transferred onto a PVDF membrane (Bio-Rad) and blocked with 5% non-fat milk (Bio-Rad) in TBS-T. The membrane was incubated with anti-FMN2 (1:500; ProteinTech), anti-phosphorylated HDAC5 (1:500, ThermoFisher), anti-HDAC5 (1:500, Novus Biologicals), anti-acetylated tubulin (1:10,000; Sigma-Aldrich), anti-NeuN (1:500; Millipore), anti-SOX10 (1:500; Abcam), anti-IBA-1 (1:1,000; Wako), anti-GFP (1:1,000; Cell Signaling), and anti-GAPDH antibodies (1:2,000; ProteinTech) as loading controls. The membrane was incubated with secondary antibody conjugated with horseradish peroxidase (1:2,000; Thermo-Fisher). Signals were detected using West Femto Maximum Sensitivity Substrate Kit (Thermo Scientific). […] Band intensities were measured using Image Lab software (Bio-Rad). […]

acetylated tubulin = experiment: Western blot of acetylated tubulin/total tubulin in sciatic nerve segments 0-6 mm distal to the crush site; assay type: in vivo, mice; details: AAV2/9-Fmn2-shRNA mice; 3 days after injury
Experimental: as §1

Q: What does the source list for `C/C(=C\c1csc(C)n1)[C@@H]1C[C@@H]2O[C@]2(C)CCC[C@H](C)[C@H](O)[C@@H](C)C(=O)C(C)(C)[C@@H](O)CC(=O)O1` [Epothilone B]?
A: axon regeneration after spinal cord injury (spinal neurons): promoted in vivo axon regeneration; tubulin polymerization at growing tips / growth cones (tubulin): induced rapid tubulin polymerization; peripheral neuropathy [1]: cause chemotherapy-induced peripheral neuropathy

Q: With `O=C(CCCCCN1C(=O)c2cccc3cccc(c23)C1=O)NO` [scriptaid] as the molecule, how does the “axonal regrowth after PNI” value (damaged axons) read?
A: markedly stalled axonal regrowth

Q: Which “axon regeneration after spinal cord injury” value (spinal neurons) does the source give for `CC(=O)O[C@H]1C(=O)[C@@]2(C)[C@H]([C@H](OC(=O)c3ccccc3)[C@]3(O)C[C@H](OC(=O)[C@H](O)[C@@H](NC(=O)c4ccccc4)c4ccccc4)C(C)=C1C3(C)C)[C@]1(OC(C)=O)CO[C@@H]1C[C@@H]2O` [paclitaxel] here?
A: facilitated in vivo axon regeneration

Q: And the “tubulin polymerization at growing tips / growth cones” value (tubulin)?
A: induced active tubulin polymerization

Q: Which results are given for `Cc1cc(C)cc(C(=O)NOCCCCCC(=O)NO)c1` [LMK-235]?
A: effect on the axon regrowth-promoting effect in AAV2/9-Fmn2-shRNA mice [2]: completely eliminated the axon regrowth-promoting effect; reduction of pHDAC5 protein expression in AAV2/9-Fmn2-shRNA mice (pHDAC5): 70%; acetylated tubulin expression in sciatic nerves of AAV2/9-Fmn2-shRNA mice (acetylated tubulin): increased acetylated tubulin expression
